Reference: ChEMBL document CHEMBL4765295, “Synthesis, pharmacological profile and 2D-QSAR studies of curcumin-amino acid conjugates as potential drug candidates” (Eur J Med Chem, 2020)
“And” between values parts separate entries of the source, which are not always exact repeats. Equal values may be shown once.

Legend:
[1] = Ulcerogenic activity in fasted albino mouse assessed as average number of ulcers in gastric mucosa at 10 mg/kg, po for 3 days (reference value: 0); format: toxicity, organism-based; conditions: in vivo, 72 h, time 3 day
Mus musculus [2] = test: Analgesic activity in albino mouse assessed as protection at 10 mg/kg, ip measured after 30 mins by hot plate test (reference value: 0 %); format: functional; conditions: 0.5 h
Splenocyte [3] = test: Immunomodulatory activity in Swiss albino mouse splenocytes assessed as cell viability at 10 uM by measuring inhibition of stimulation index incubated for 72 hrs in presence of mitogenic stimulus phytohaemagglutinin by MTT assay relative to indomethacin; format: functional; conditions: read-out: Activity
Rattus norvegicus [4] = test: Anti-inflammatory activity in Wistar rat assessed as inhibition of carrageenan-induced paw edema at 10 mg/kg, ip pretreated for 1 hr followed by carrageenan challenge and measured after 1 hr relative to control (reference value: 0.00 +/-0.02 %); format: functional; conditions: time 2 hrs
Candida albicans = test: Antifungal activity against Candida albicans incubated for 18 to 24 hrs by CLSI method; format: functional; conditions: time 18-24 hrs
PC-3 = test: Antiproliferative activity against human PC3 cells assessed as inhibition of cell growth after 72 hrs by MTT assay; format: functional, cell-based; conditions: PC-3, 72 h
Mus musculus [5] = test: Analgesic activity in albino mouse assessed as protection at 10 mg/kg, ip measured after 120 mins by hot plate test (reference value: 0 %); format: functional; conditions: 2 h
[6] = Toxicity in albino mouse assessed as induction of toxic symptoms at 50 to 100 mg/kg, ip measured after 24 hrs; format: organism-based; conditions: in vivo, dose 50-100 mg/kg
Rattus norvegicus [7] = test: Antiinflammatory activity in Wistar rat model of carrageenan-induced paw edema assessed as reduction in thickness of paw edema at 10 mg/kg, ip pretreated for 1 hr followed by carrageenan challenge and measured after 3 hrs (reference value: 1.79 +/-0.07 mm); format: functional; conditions: time 4 hrs
Splenocyte [8] = test: Immunomodulatory activity in Swiss albino mouse splenocytes assessed as cell viability at 10 uM by measuring stimulation index incubated for 72 hrs in presence of mitogenic stimulus phytohaemagglutinin by MTT assay (reference value: 1.00 +/- 0.24); format: functional
[9] = Ulcerogenic activity in fasted albino mouse assessed as incidence of gastric ulceration at 10 mg/kg, po for 3 days (reference value: 0 %); format: toxicity, organism-based; conditions: in vivo, 72 h, time 3 day
Pseudomonas aeruginosa = test: Antibacterial activity against Pseudomonas aeruginosa ATCC 27853 incubated for 18 hrs by agar dilution assay; format: functional
Mus musculus [10] = test: Analgesic activity in albino mouse assessed reduction in acetic acid-induced abdominal writhing by measuring writing reflex at 10 mg/kg, ip pretreated for 1 hr followed by acetic acid challenge and measured starting 5 mins post acetic acid challenge for 10 mins (reference value: 42.4 +/- 1.02); format: functional; conditions: time 75 min, 1.25 h
[11] = Ulcerogenic activity in fasted albino mouse assessed as average severity of ulcers in gastric mucosa at 10 mg/kg, po for 3 days (reference value: 0); format: toxicity, organism-based; conditions: in vivo, 72 h, time 3 day
Rattus norvegicus [12] = test: Antiinflammatory activity in Wistar rat model of carrageenan-induced paw edema assessed as reduction in thickness of paw edema at 10 mg/kg, ip pretreated for 1 hr followed by carrageenan challenge and measured after 2 hrs (reference value: 2.06 +/-0.09 mm); format: functional; conditions: time 3 hrs
Rattus norvegicus [13] = test: Antiinflammatory activity in Wistar rat model of carrageenan-induced paw edema assessed as reduction in thickness of paw edema at 10 mg/kg, ip pretreated for 1 hr followed by carrageenan challenge and measured after 24 hrs (reference value: 0.83 +/-0.08 mm); format: functional; conditions: time 25 hrs
Peritoneal macrophage [14] = test: Antiinflammatory activity in […] mouse Peritoneal macrophages assessed as inhibition of LPS-induced NO production at 10 uM preincubated for 1 hr followed by LPS stimulation measured after 24 hrs by Griess method relative to control (reference value: 0.0 %); format: functional; parameters: scale not given: the % may be the effect or the level left; conditions: time 25 hrs
Mus musculus [15] = test: Analgesic activity in albino mouse assessed as protection at 10 mg/kg, ip measured after 90 mins by hot plate test (reference value: 0 %); format: functional; conditions: 1.5 h
[16] = Ulcerogenic activity in fasted albino mouse assessed as ulcer index in gastric mucosa at 10 mg/kg, po for 3 days (reference value: 0); format: toxicity, organism-based; conditions: in vivo, 72 h, time 3 day
Mus musculus [17] = test: Analgesic activity in albino mouse assessed protection against acetic acid-induced abdominal writhing at 10 mg/kg, ip pretreated for 1 hr followed by acetic acid challenge and measured starting 5 mins post acetic acid challenge for 10 mins relative to indomethacin; format: functional; conditions: time 75 min, 1.25 h
Rattus norvegicus [18] = test: Antiinflammatory activity in Wistar rat model of carrageenan-induced paw edema assessed as reduction in thickness of paw edema at 10 mg/kg, ip pretreated for 1 hr followed by carrageenan challenge and measured after 4 hrs (reference value: 1.40 +/-0.10 mm); format: functional; conditions: time 5 hrs
Rattus norvegicus [19] = test: Anti-inflammatory activity in Wistar rat assessed as inhibition of carrageenan-induced paw edema at 10 mg/kg, ip pretreated for 1 hr followed by carrageenan challenge and measured after 4 hr relative to control (reference value: 0.00 +/-0.4 %); format: functional; conditions: time 5 hrs
Mus musculus [20] = test: Analgesic activity in albino mouse assessed as forepaw licking/jumping latency time at 10 mg/kg, ip measured after 30 mins by hot plate test (reference value: 5.02 +/- 0.09 sec); format: functional; conditions: 0.5 h
Peritoneal macrophage [21] = test: Antiinflammatory activity in […] mouse Peritoneal macrophages assessed as reduction in LPS-induced NO production by measuring reduction in stimulation index at 10 uM preincubated for 1 hr followed by LPS stimulation measured after 24 hrs by Griess method (reference value: 27.31 +/- 2.56 uM); format: functional; conditions: time 25 hrs
Staphylococcus aureus = test: Antibacterial activity against Staphylococcus aureus ATCC 25923 incubated for 18 hrs by agar dilution method; format: functional
A549 = test: Antiproliferative activity against human A549 cells assessed as inhibition of cell growth after 72 hrs by MTT assay; format: functional, cell-based; conditions: A549, 72 h
Mus musculus [22] = test: Analgesic activity in albino mouse assessed as forepaw licking/jumping latency time at 10 mg/kg, ip measured after 60 mins by hot plate test (reference value: 3.42 +/- 0.03 sec); format: functional; conditions: 1 h
Rattus norvegicus [23] = test: Antiinflammatory activity in Wistar rat model of carrageenan-induced paw edema assessed as reduction in thickness of paw edema at 10 mg/kg, ip pretreated for 1 hr followed by carrageenan challenge and measured after 1 hr (reference value: 2.41 +/-0.05 mm); format: functional; conditions: time 1 hr after carrageenan
Mus musculus [24] = test: Analgesic activity in albino mouse assessed as protection at 10 mg/kg, ip measured after 60 mins by hot plate test (reference value: 0 %); format: functional; conditions: 1 h
Mus musculus [25] = test: Analgesic activity in albino mouse assessed as protection at 10 mg/kg, ip measured after 120 mins by hot plate test relative to indomethacin; format: functional; conditions: 2 h
Mus musculus [26] = test: Analgesic activity in albino mouse assessed protection against acetic acid-induced abdominal writhing at 10 mg/kg, ip pretreated for 1 hr followed by acetic acid challenge and measured starting 5 mins post acetic acid challenge for 10 mins relative to control (reference value: 0 %); format: functional; conditions: time 75 min, 1.25 h
Streptococcus pyogenes = test: Antibacterial activity against Streptococcus pyogenes ATCC 19615 incubated for 18 hrs by agar dilution method; format: functional
Rattus norvegicus [27] = test: Anti-inflammatory activity in Wistar rat assessed as inhibition of carrageenan-induced paw edema at 10 mg/kg, ip pretreated for 1 hr followed by carrageenan challenge and measured after 4 hr relative to indomethacin; format: functional; conditions: time 5 hrs
Mus musculus [28] = test: Analgesic activity in albino mouse assessed as forepaw licking/jumping latency time at 10 mg/kg, ip measured after 120 mins by hot plate test (reference value: 2.62 +/- 0.06 sec); format: functional; conditions: 2 h
MCF7 = test: Antiproliferative activity against human MCF7 cells assessed as inhibition of cell growth after 72 hrs by MTT assay; format: functional, cell-based; conditions: MCF7, 72 h
Mus musculus [29] = test: Analgesic activity in albino mouse assessed as forepaw licking/jumping latency time at 10 mg/kg, ip measured after 90 mins by hot plate test (reference value: 2.72 +/- 0.01 sec); format: functional; conditions: 1.5 h
Rattus norvegicus [30] = test: Anti-inflammatory activity in Wistar rat assessed as inhibition of carrageenan-induced paw edema at 10 mg/kg, ip pretreated for 1 hr followed by carrageenan challenge and measured after 2 hr relative to control (reference value: 0.00 +/-0.03 %); format: functional; conditions: time 3 hrs
Rattus norvegicus [31] = test: Anti-inflammatory activity in Wistar rat assessed as inhibition of carrageenan-induced paw edema at 10 mg/kg, ip pretreated for 1 hr followed by carrageenan challenge and measured after 3 hr relative to control (reference value: 0.00 +/-0.1 %); format: functional; conditions: time 4 hrs
Salmonella typhimurium = test: Antibacterial activity against Salmonella typhimurium ATCC 19430 incubated for 18 hrs by agar dilution assay; format: functional, Salmonella enterica subsp. enterica serovar Typhimurium; conditions: Salmonella enterica
Rattus norvegicus [32] = test: Anti-inflammatory activity in Wistar rat assessed as inhibition of carrageenan-induced paw edema at 10 mg/kg, ip pretreated for 1 hr followed by carrageenan challenge and measured after 24 hr relative to control (reference value: 0.00 +/-0.3 %); format: functional; conditions: time 25 hrs

MIC (Candida albicans) | IC50 (PC-3) [µM] | MIC (Pseudomonas aeruginosa) | Structure (SMILES) | Activity [1] | Activity (Mus musculus [2]) [%] | viability at 10 µM (Splenocyte [3]) [%] | inhibition in vivo at 10 mg/kg (Rattus norvegicus [4]) [%] | Activity (Mus musculus [5]) [%] | Activity [6] | Activity (Rattus norvegicus [7]) [mm] | Activity_index (Splenocyte [8]) | Activity [9] [%] | Activity (Mus musculus [10]) | Activity [11] | Activity (Rattus norvegicus [12]) [mm] | Activity (Rattus norvegicus [13]) [mm] | Activity (Peritoneal macrophage [14]) [%] | Activity (Mus musculus [15]) [%] | UI [16] | Activity (Mus musculus [17]) [%] | other results
0.5 µg/mL and 0.711 µM | 42.6 | 0.5 µg/mL and 0.711 µM | COc1cc(/C=C/C(=O)/C=C(O)/C=C/c2ccc(OC(=O)[C@@H](N)CCSC)c(OC)c2)ccc1OC(=O)[C@@H](N)CCSC.Cl.Cl | 0 | 5.2 | 81.3 | 64 | 63.4 | Non-Toxic | 0.49 | 1.49 | 0 | 27.2 | 0 | 0.62 | 0.53 | 37.94 | 83.1 | 0 | 58.1 | Activity (Rattus norvegicus [18]): 0.04 mm; inhibition in vivo at 10 mg/kg (Rattus norvegicus [19]): 97%; Time (Mus musculus [20]): 5.28 s; Activity (Peritoneal macrophage [21]): 16.95 µM; MIC (Staphylococcus aureus): 0.25 µg/mL and 0.355 µM; IC50 (A549): 32.8 µM; Time (Mus musculus [22]): 5.02 s; Activity (Rattus norvegicus [23]): 0.86 mm; Activity (Mus musculus [24]): 46.8%; Activity (Mus musculus [25]): 151%; Activity (Mus musculus [26]): 35.8%; MIC (Streptococcus pyogenes): 0.5 µg/mL and 0.711 µM; inhibition in vivo at 10 mg/kg (Rattus norvegicus [27]): 111%; Time (Mus musculus [28]): 4.28 s; IC50 (MCF7): 11.3 µM; Time (Mus musculus [29]): 4.98 s; inhibition in vivo at 10 mg/kg (Rattus norvegicus [30]): 70%; inhibition in vivo at 10 mg/kg (Rattus norvegicus [31]): 73%; MIC (Salmonella typhimurium): 0.125 µg/mL and 0.178 µM; inhibition in vivo at 10 mg/kg (Rattus norvegicus [32]): 36%
0.125 µg/mL and 0.214 µM | 30.7 | 1 µg/mL and 1.71 µM | COc1cc(/C=C/C(=O)/C=C(O)/C=C/c2ccc(OC(=O)[C@@H](C)N)c(OC)c2)ccc1OC(=O)[C@@H](C)N.Cl.Cl | 0 | 5.6 | 89.6 | 61 | 53.4 | Non-Toxic | 0.46 | 1.35 | 0 | 13.8 | 0 | 0.79 | 0.59 | 41.26 | 73.5 | 0 | 109.6 | Activity (Rattus norvegicus [18]): 0.06 mm; inhibition in vivo at 10 mg/kg (Rattus norvegicus [19]): 96%; Time (Mus musculus [20]): 5.3 s; Activity (Peritoneal macrophage [21]): 16.04 µM; MIC (Staphylococcus aureus): 0.125 µg/mL and 0.214 µM; IC50 (A549): 30.9 µM; Time (Mus musculus [22]): 5.82 s; Activity (Rattus norvegicus [23]): 0.95 mm; Activity (Mus musculus [24]): 70.2%; Activity (Mus musculus [25]): 127.1%; Activity (Mus musculus [26]): 67.5%; MIC (Streptococcus pyogenes): 0.25 µg/mL and 0.428 µM; inhibition in vivo at 10 mg/kg (Rattus norvegicus [27]): 110%; Time (Mus musculus [28]): 4.02 s; IC50 (MCF7): 10.4 µM; Time (Mus musculus [29]): 4.72 s; inhibition in vivo at 10 mg/kg (Rattus norvegicus [30]): 62%; inhibition in vivo at 10 mg/kg (Rattus norvegicus [31]): 74%; MIC (Salmonella typhimurium): 0.25 µg/mL and 0.428 µM; inhibition in vivo at 10 mg/kg (Rattus norvegicus [32]): 29%
